Format in all cases: cell-based
Test [1] deals with T1, Her2 exon 20 YVMA insertion (A775_G776ins YVMA) (Homo sapiens, UniProt P04626, INS775YVMA).
T1 construct: expressed in transfected cells; host or cells: Ba/F3 (murine pro-B) cells transduced with lentivirus from pLVX-IRES puro
Put plainly: Ba/F3-Her2 Exon20 YVMA cell anti-proliferative assay (CellTiter 96 MTS, 72 h). The following applies: Ba/F3-Her2 Exon20 YVMA cells. The essentials:
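IL-3-independent Ba/F3 cells transduced with the YVMA insertion were treated with compound in 4-fold dilutions from 10,000 nM top. After 72 h at 37° C, viable cells were quantified by MTS tetrazolium conversion, with absorbance read at 490 nm after 2 h.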

Test [2] concerns the target T2, human EGFR L858R and T790M double mutation (Homo sapiens, UniProt P00533, L858R/T790M).
T2 construct: expressed in transfected cells; host or cells: Ba/F3 (murine pro-B) cells transduced with lentivirus from pLVX-IRES puro
Put plainly: Ba/F3-EGFR L858R/T790M cell anti-proliferative assay (CellTiter 96 MTS, 72 h). The following applies: Ba/F3-EGFR L858R/T790M cells. As for the experimental part:
An expression vector, pLVX-IRES puro (Clontech) coding for human EGFR L858R and T790M double mutation, was transfected into HEK293 cells by the Trans-Lentiviral ORF Packaging System (Thermo Scientific), to produce virus encoding EGFR L858R and T790M double mutations. Ba/F3 (DSMZ) cells maintained in RPMI 1640 medium supplemented with 10% fetal bovine serum, 200 μM L-glutamine/l 200 μg/mL penicillin/200 μg/mL streptomycin (Life Technology) and 10 ng/mL IL-3 (R&D system), were infected by EGFR L858R and T790M double mutation virus and subsequently selected by puromycin (Life Technology) selection and IL-3 depletion. […] The anti-proliferative activity of compounds was determined as follows: BaF3-EGFR L858R/T790M cells seeded in 96 well plates (2500 cells/well) were treated with test compound (dissolved in DMSO) at a series of concentrations (4-fold dilution, top concentration: 10,000 nM). The plates were incubated for 72 h in a 37° C. incubator with 5% CO2, and the number of viable cells in each well were measured indirectly by CellTiter 96® Aqueous One Solution Cell Proliferation Assay (Promega; this assay is a colorimetric method for determining the number of viable cells through measurement of their metabolic activity by detection of enzymatic conversion of tetrazolium salts into blue formazan derivatives). Reagent (20 μL) was added into each well, and the plates were returned to the incubator for 2 h. The absorbance in each well was then measured at 490 nm using an Envision plate reader (Perkin Elmer).

For test [3], the target named is T3, human EGFR E746-A750 deletion and T790M Mutation (Homo sapiens, UniProt P00533, DEL746-750/T790M).
T3 construct: expressed in transfected cells; host or cells: Ba/F3 (murine pro-B) cells transduced with lentivirus from pLVX-IRES puro
T3 sequence (P00533 with tags, fused parts or gaps DEL746-750/T790M): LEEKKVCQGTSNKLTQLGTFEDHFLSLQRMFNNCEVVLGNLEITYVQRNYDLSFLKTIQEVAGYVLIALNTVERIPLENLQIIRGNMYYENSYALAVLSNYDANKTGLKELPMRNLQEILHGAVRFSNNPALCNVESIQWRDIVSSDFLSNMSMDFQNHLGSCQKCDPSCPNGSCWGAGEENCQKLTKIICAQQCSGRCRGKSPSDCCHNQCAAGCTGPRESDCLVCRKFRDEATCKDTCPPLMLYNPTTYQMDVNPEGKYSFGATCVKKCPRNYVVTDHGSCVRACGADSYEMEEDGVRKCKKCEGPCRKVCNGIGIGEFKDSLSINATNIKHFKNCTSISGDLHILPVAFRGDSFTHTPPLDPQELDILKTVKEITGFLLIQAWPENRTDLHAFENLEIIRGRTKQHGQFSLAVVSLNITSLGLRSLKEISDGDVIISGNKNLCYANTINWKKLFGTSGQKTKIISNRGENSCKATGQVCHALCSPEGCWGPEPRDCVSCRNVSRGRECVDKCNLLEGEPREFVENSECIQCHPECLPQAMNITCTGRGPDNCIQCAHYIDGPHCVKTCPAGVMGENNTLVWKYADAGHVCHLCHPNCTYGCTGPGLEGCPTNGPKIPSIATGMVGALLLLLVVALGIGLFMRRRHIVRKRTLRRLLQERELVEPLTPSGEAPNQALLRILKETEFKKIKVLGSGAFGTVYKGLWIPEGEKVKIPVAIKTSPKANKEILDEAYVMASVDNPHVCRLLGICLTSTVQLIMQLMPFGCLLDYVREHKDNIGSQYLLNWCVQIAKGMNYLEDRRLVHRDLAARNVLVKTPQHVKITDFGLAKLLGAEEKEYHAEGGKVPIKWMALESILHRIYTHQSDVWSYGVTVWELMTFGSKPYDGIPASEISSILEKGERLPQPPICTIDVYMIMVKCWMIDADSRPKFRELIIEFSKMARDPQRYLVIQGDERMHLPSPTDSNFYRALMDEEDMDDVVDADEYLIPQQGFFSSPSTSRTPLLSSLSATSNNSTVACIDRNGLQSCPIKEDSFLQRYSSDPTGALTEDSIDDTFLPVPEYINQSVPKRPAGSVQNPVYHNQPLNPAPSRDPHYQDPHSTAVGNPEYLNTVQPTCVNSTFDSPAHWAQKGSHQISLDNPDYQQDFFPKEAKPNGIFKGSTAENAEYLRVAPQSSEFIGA
As to the kind of experiment: Ba/F3-EGFR-Del/T790M cell anti-proliferative assay (CellTiter 96 MTS, 72 h). The following applies: Ba/F3-EGFR-Del/T790M cells. In short, it runs like this:
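Ba/F3 cells made IL-3-independent by lentiviral human EGFR E746-A750 del/T790M, puromycin-selected. Cells treated 72 h at 37 °C with compound, 4-fold dilutions from 10,000 nM top concentration. Viability read by MTS tetrazolium-to-formazan conversion, absorbance at 490 nm after 2 h with reagent.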

Test [4] has as its target T4, human EGFR exon 20 insertion NPG (H773_V774insNPG) (Homo sapiens, UniProt P00533, INS772GNP).
T4 construct: expressed in transfected cells; host or cells: Ba/F3 (murine pro-B) cells transduced with lentivirus from pLVX-IRES puro
Put plainly: Ba/F3-EGFR-Exon20-NPG cell anti-proliferative assay (CellTiter 96 MTS, 72 h). The following applies: Ba/F3-EGFR-Exon20-NPG cells. In short, it runs like this: (§1)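 Ba/F3 cells made IL-3-independent by lentiviral EGFR exon 20 NPG or ASV insertion were exposed 72 h at 37 °C to 4-fold dilutions of compound (top 10,000 nM). Viability read by MTS tetrazolium conversion, absorbance 490 nm after 2 h.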

Test [5] has as its target T5, human EGFR exon 20 insertion ASV (V769_D770insASV) (Homo sapiens, UniProt P00533, INS769ASV).
T5 construct: expressed in transfected cells; host or cells: Ba/F3 (murine pro-B) cells transduced with lentivirus from pLVX-IRES puro
As to the kind of experiment: Ba/F3-EGFR-Exon20-ASV cell anti-proliferative assay (CellTiter 96 MTS, 72 h). The following applies: Ba/F3-EGFR-Exon20-ASV cells. In short, it runs like this:
as §1

T1 sequence (P04626 with tags, fused parts or gaps INS775YVMA): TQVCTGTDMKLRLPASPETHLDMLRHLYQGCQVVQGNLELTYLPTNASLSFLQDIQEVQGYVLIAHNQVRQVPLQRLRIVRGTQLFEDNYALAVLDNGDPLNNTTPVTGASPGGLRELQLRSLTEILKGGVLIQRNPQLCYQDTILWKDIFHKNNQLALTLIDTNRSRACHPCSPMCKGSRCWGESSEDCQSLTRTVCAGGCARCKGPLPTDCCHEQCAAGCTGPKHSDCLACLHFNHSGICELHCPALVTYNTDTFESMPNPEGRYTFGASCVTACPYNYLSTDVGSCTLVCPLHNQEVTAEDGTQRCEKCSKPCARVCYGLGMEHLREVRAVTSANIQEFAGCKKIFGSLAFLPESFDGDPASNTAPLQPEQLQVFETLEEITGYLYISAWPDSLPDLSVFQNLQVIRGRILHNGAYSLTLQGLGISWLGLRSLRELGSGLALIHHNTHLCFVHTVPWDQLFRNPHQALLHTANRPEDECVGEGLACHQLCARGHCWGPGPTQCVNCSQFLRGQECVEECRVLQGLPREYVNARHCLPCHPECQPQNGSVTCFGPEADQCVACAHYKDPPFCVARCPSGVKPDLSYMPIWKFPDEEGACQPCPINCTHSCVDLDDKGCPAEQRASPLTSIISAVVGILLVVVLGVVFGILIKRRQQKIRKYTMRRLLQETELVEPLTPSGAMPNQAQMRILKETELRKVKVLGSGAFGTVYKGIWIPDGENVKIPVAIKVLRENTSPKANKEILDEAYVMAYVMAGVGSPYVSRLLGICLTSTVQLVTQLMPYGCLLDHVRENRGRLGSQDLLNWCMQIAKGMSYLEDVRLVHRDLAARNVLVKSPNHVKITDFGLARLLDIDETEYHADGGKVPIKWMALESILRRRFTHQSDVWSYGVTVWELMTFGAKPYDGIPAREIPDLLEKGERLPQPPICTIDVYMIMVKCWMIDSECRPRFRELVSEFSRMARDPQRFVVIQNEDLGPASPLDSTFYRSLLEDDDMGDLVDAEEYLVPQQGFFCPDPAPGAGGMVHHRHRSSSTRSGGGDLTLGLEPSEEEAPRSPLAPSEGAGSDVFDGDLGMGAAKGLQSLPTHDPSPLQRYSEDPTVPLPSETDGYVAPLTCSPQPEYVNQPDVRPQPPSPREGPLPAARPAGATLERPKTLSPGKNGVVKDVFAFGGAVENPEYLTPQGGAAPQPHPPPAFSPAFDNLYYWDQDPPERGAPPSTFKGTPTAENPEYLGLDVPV
T5 sequence (P00533 with tags, fused parts or gaps INS769ASV): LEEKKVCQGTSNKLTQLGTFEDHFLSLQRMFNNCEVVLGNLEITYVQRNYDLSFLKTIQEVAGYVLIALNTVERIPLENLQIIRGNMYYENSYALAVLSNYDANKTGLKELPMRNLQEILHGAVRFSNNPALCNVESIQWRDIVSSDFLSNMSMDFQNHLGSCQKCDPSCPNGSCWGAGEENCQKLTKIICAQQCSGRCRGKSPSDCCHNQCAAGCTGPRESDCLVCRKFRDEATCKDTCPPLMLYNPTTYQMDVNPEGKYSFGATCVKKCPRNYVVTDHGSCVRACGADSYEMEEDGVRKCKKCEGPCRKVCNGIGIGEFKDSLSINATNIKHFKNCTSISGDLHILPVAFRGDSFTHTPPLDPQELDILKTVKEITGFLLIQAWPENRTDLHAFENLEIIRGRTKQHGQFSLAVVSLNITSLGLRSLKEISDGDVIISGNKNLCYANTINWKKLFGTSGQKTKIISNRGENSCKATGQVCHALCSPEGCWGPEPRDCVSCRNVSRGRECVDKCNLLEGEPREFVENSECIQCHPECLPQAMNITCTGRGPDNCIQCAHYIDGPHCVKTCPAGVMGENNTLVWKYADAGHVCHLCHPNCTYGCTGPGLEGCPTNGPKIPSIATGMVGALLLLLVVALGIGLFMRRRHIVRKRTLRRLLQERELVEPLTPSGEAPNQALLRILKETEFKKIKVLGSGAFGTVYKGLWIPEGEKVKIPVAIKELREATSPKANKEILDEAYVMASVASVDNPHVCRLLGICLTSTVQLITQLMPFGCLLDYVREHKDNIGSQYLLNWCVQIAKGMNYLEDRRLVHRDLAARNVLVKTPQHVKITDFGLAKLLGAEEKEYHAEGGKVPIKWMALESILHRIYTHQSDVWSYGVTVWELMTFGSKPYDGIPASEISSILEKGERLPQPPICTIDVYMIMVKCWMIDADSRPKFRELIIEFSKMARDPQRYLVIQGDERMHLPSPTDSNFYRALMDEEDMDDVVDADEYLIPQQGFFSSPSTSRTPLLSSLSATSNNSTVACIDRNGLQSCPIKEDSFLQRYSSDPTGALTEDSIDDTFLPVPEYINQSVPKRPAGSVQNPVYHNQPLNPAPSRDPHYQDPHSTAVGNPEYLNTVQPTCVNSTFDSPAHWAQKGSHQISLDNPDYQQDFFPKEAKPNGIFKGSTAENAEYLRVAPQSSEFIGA
T4 sequence (P00533 with tags, fused parts or gaps INS772GNP): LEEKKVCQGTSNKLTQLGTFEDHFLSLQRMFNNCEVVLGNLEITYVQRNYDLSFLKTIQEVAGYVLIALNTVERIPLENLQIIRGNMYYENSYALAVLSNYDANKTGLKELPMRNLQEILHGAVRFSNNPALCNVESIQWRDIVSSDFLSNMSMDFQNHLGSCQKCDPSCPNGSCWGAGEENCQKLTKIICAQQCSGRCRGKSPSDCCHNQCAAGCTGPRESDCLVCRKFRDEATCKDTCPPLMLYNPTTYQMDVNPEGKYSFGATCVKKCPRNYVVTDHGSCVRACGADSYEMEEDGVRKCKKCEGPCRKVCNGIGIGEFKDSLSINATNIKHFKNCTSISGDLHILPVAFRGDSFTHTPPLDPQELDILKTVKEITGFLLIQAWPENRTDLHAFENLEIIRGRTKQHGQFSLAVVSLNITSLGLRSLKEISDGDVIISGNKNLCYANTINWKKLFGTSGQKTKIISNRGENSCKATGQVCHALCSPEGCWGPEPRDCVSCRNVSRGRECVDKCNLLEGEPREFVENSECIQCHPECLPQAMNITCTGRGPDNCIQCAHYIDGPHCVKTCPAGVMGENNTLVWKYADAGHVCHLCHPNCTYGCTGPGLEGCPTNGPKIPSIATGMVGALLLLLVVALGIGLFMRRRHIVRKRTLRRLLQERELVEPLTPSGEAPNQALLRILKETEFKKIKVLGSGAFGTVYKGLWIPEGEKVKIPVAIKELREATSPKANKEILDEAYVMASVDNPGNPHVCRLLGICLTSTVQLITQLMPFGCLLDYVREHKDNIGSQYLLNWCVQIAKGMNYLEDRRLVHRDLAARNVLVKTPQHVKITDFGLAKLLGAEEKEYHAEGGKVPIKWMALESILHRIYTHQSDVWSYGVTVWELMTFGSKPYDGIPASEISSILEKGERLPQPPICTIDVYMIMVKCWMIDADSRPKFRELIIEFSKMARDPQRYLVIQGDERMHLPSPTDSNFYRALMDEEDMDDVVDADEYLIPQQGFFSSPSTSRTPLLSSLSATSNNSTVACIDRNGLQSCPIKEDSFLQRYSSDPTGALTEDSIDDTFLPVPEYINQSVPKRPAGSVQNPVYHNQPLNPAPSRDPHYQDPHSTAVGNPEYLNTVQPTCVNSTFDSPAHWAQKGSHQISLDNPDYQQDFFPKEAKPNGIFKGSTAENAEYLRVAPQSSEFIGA

On to `C=CC(=O)Nc1cc(Nc2ncc(C=C)c(-c3cn4c5c(cccc35)CCC4)n2)c(OC)cc1N(C)CCN(C)C` [Example 27, N-(5-((4-(5,6-dihydro-4H-pyrrolo[3,2,1-ij]quinolin-1-yl)-5-vinylpyrimidin-2-yl)amino)-2-((2-(dimethylamino)ethyl)(methyl)amino)-4-methoxyphenyl)acrylamide], for which the half-maximal inhibitory concentration (IC50) in test [1], in test [4] and in test [5] was < 100 nM each time. Also, the “EGFR exon 21 L858R and exon 20 T790M mutation IC50” value in test [2] was “A (IC50 value for the indicated mutant below about 100 nM)”. Further, the “EGFR exon 19 deletion and exon 20 T790M mutation IC50” value in test [3] is reported as “A (IC50 value for the indicated mutant below about 100 nM)”.

Turning to `C=CC(=O)Nc1cc(Nc2ncc(Cl)c(-c3cn4c5c(cccc35)OCC4)n2)c(OC)cc1N(C)CCN(C)C` [Example 76, N-(5-((5-chloro-4-(2,3-dihydro-[1,4]oxazino[2,3,4-hi]indol-6-yl)pyrimidin-2-yl)amino)-2-((2-(dimethylamino)ethyl)(methyl)amino)-4-methoxyphenyl)acrylamide], the half-maximal inhibitory concentration (IC50) was 100 to 500 nM in test [1], < 100 nM in test [4] and < 100 nM in test [5]. In addition, the “EGFR exon 21 L858R and exon 20 T790M mutation IC50” value in test [2] was “A (IC50 value for the indicated mutant below about 100 nM)”. For the same compound, the “EGFR exon 19 deletion and exon 20 T790M mutation IC50” value in test [3] is “A (IC50 value for the indicated mutant below about 100 nM)”.

With `C=CC(=O)Nc1cc(Nc2ncc(C(=O)NCCO)c(-c3cn4c5c(cccc35)CCC4)n2)c(OC)cc1N(C)CCN(C)C` [Example 48], the half-maximal inhibitory concentration (IC50) was > 1000 nM in test [1], < 100 nM in test [4] and 500 to 1000 nM in test [5]. Further, in test [2], the “EGFR exon 21 L858R and exon 20 T790M mutation IC50” value is “C (IC50 value for the indicated mutant between greater than about 500 to about 1 μM)”. For the same compound, the “EGFR exon 19 deletion and exon 20 T790M mutation IC50” value in test [3] is “B (IC50 value for the indicated mutant between about 100 to about 500 nM)”.

Take `C=CC(=O)Nc1cc(Nc2ncc(CC)c(-c3cn4c5c(cccc35)OCC4)n2)c(OC)cc1N(C)CCN(C)C` [Example 1, N-(5-((4-(2,3-dihydro-[1,4]oxazino[2,3,4-hi]indol-6-yl)-5-ethylpyrimidin-2-yl)amino)-2-((2-(dimethylamino)ethyl)(methyl)amino)-4-methoxyphenyl)acrylamide]: the half-maximal inhibitory concentration (IC50) in test [1] was 100 to 500 nM; in test [4] it was < 100 nM; in test [5], < 100 nM. Further, in test [2], the “EGFR exon 21 L858R and exon 20 T790M mutation IC50” value is “A (IC50 value for the indicated mutant below about 100 nM)”. Besides, the “EGFR exon 19 deletion and exon 20 T790M mutation IC50” value in test [3] is recorded as “A (IC50 value for the indicated mutant below about 100 nM)”.

On to `C=CC(=O)Nc1cc(Nc2ncc(CCC(C)(C)O)c(-c3cn4c5c(cccc35)CCC4)n2)c(OC)cc1N(C)CCN(C)C` [Example 37, N-(5-((4-(5,6-dihydro-4H-pyrrolo[3,2,1-ij]quinolin-1-yl)-5-(3-hydroxy-3-methylbutyl)pyrimidin-2-yl)amino)-2-((2-(dimethylamino)ethyl)(methyl)amino)-4-methoxyphenyl)acrylamide], for which the figures for the IC50 in test [1], in test [4] and in test [5] were 100 to 500 nM, < 100 nM and < 100 nM, respectively. In addition, in test [2], the “EGFR exon 21 L858R and exon 20 T790M mutation IC50” value is “B (IC50 value for the indicated mutant between about 100 to about 500 nM)”. Besides, the “EGFR exon 19 deletion and exon 20 T790M mutation IC50” value in test [3] is “A (IC50 value for the indicated mutant below about 100 nM)”.

`C=CC(=O)Nc1cc(Nc2ncc(C#N)c(-c3cn4c5c(cccc35)OCC4)n2)c(OC)cc1N(C)CCN(C)C` [Example 4, N-(5-((5-cyano-4-(2,3-dihydro-[1,4]oxazino[2,3,4-hi]indol-6-yl)pyrimidin-2-yl)amino)-2-((2-(dimethylamino)ethyl)(methyl)amino)-4-methoxyphenyl)acrylamide]: the IC50 in test [1], in test [4] and in test [5] was < 100 nM in each case. Besides, the “EGFR exon 21 L858R and exon 20 T790M mutation IC50” value in test [2] is “A (IC50 value for the indicated mutant below about 100 nM)”. In test [3], the “EGFR exon 19 deletion and exon 20 T790M mutation IC50” value is recorded as “A (IC50 value for the indicated mutant below about 100 nM)”.

For `C=CC(=O)Nc1cc(Nc2ncc(C#N)c(-c3cn4c5c(cccc35)CCC4)n2)c(OC)cc1N(C)CCNC` [Example 84, N-(5-((5-cyano-4-(5,6-dihydro-4H-pyrrolo[3,2,1-ij]quinolin-1-yl)pyrimidin-2-yl)amino)-4-methoxy-2-(methyl(2-(methylamino)ethyl)amino)phenyl)acrylamide], the IC50 in test [1] was < 100 nM; in test [4], > 1000 nM; in test [5], < 100 nM. In addition, in test [2], the “EGFR exon 21 L858R and exon 20 T790M mutation IC50” value is listed as “A (IC50 value for the indicated mutant below about 100 nM)”. Besides, the “EGFR exon 19 deletion and exon 20 T790M mutation IC50” value in test [3] was “A (IC50 value for the indicated mutant below about 100 nM)”.

For the compound `C=CC(=O)Nc1cc(Nc2nccc(-c3cn4c5c(cccc35)CCC4)n2)c(OC)cc1N(C)CCNC` [Example 83, N-(5-((4-(5,6-dihydro-4H-pyrrolo[3,2,1-ij]quinolin-1-yl)pyrimidin-2-yl)amino)-4-methoxy-2-(methyl(2-(methylamino)ethyl)amino)phenyl)acrylamide], the results for the IC50 in test [1], in test [4] and in test [5] were 100 to 500 nM, < 100 nM and 100 to 500 nM, respectively. Moreover, the “EGFR exon 21 L858R and exon 20 T790M mutation IC50” value in test [2] was “A (IC50 value for the indicated mutant below about 100 nM)”. Moreover, the “EGFR exon 19 deletion and exon 20 T790M mutation IC50” value in test [3] was “A (IC50 value for the indicated mutant below about 100 nM)”.

As to `C=CC(=O)Nc1cc(Nc2ncc(CCP(C)(C)=O)c(-c3cn4c5c(cccc35)CCC4)n2)c(OC)cc1N(C)CCN(C)C` [Example 96], the IC50 in test [1], in test [4] and in test [5] was > 1000 nM throughout. Besides, the “EGFR exon 21 L858R and exon 20 T790M mutation IC50” value in test [2] is “D (IC50 value for the indicated mutant greater than about 1 μM)”. For the same compound, in test [3], the “EGFR exon 19 deletion and exon 20 T790M mutation IC50” value is listed as “D (IC50 value for the indicated mutant greater than about 1 μM)”.

`C=CC(=O)Nc1cc(Nc2ncc(-c3ncc[nH]3)c(-c3cn4c5c(cccc35)CCC4)n2)c(OC)cc1N(C)CCN(C)C` [Example 97]: the figures for the IC50 in test [1], in test [4] and in test [5] were > 1000 nM, 100 to 500 nM and 100 to 500 nM, respectively. In test [2], the “EGFR exon 21 L858R and exon 20 T790M mutation IC50” value is “C (IC50 value for the indicated mutant between greater than about 500 to about 1 μM)”. In addition, the “EGFR exon 19 deletion and exon 20 T790M mutation IC50” value in test [3] was “B (IC50 value for the indicated mutant between about 100 to about 500 nM)”.

With `C=CC(=O)Nc1cc(Nc2ncc(C#N)c(-c3cn4c5c(cccc35)CCC4)n2)c(OC)cc1N(C)CCN(C)C` [Example 14, N-(5-((5-cyano-4-(5,6-dihydro-4H-pyrrolo[3,2,1-ij]quinolin-1-yl)pyrimidin-2-yl)amino)-2-((2-(dimethylamino)ethyl)(methyl)amino)-4-methoxyphenyl)acrylamide], the IC50 in test [1] is < 100 nM; in test [4], > 1000 nM; in test [5], < 100 nM. In test [2], the “EGFR exon 21 L858R and exon 20 T790M mutation IC50” value is given as “A (IC50 value for the indicated mutant below about 100 nM)”. Also, in test [3], the “EGFR exon 19 deletion and exon 20 T790M mutation IC50” value is recorded as “A (IC50 value for the indicated mutant below about 100 nM)”.

As to `C=CC(=O)Nc1cc(Nc2nccc(-c3cn4c5c(cccc35)OCC4)n2)c(OC)cc1N(C)CCNC` [Example 105, N-(5-((4-(2,3-dihydro-[1,4]oxazino[2,3,4-hi]indol-6-yl)pyrimidin-2-yl)amino)-4-methoxy-2-(methyl(2-(methylamino)ethyl)amino)phenyl)acrylamide], the figures for the IC50 in test [1], in test [4] and in test [5] were 500 to 1000 nM, 100 to 500 nM and 100 to 500 nM, respectively. Moreover, in test [2], the “EGFR exon 21 L858R and exon 20 T790M mutation IC50” value is on record as “C (IC50 value for the indicated mutant between greater than about 500 to about 1 μM)”. For the same compound, the “EGFR exon 19 deletion and exon 20 T790M mutation IC50” value in test [3] was “A (IC50 value for the indicated mutant below about 100 nM)”.
